In US8865750B2, “Small molecule inhibitors of RGS proteins” (The Regents of The University of Michigan, priority 2011, dated 2014):
“Also recorded” adds a separate entry of the source.

Columns and labels:
M3 muscarinic receptor = test: Carbachol-induced Ca2+ response, M3 cells without RGS4 dependence; assay type: cell-based; settings: for effect on carbachol-induced Ca2+ response (RGS-independent): 10 μM (FIG. 20) or as stated
Procedure: (§1) Calcium Mobilization Experiments:
(§2) A stable cell line was developed based upon the HEK-293 Flp-In TREx cell line (Invitrogen, Carlsbad, Calif.) that stably express the muscarinic M3 receptor and have human RGS4 expression under doxycycline control. Cells were maintained in DMEM supplemented with 10% fetal bovine serum and Penicillin (100 units/ml)-Streptomycin (100 μg/ml) under 5% CO2 at 37° C. For experiments, cells were split into 96-well black, clear bottom, poly-D-lysine coated microtiter plates (Nunc, Cat. #152037) at a density of 20,000 cells/well in DMEM containing 10% fetal bovine serum and Penicillin (100 units/ml), Streptomycin (100 μg/ml). RGS4 expression was induced by supplementing the medium with 1 μg/mL doxycycline for 24-48 hours before experimentation. Cells were loaded with Fluo-4 No Wash dye in buffer for 30 minutes at 37° C. Compounds and/or carbachol were added to the wells and the fluorescence intensity was measured using a FlexStation (Molecular Devices, Sunnyvale, Calif.) plate reader. Data analysis was performed by calculating the area under the curve or maximal fluorescence intensity from a 120 second kinetic measurement.
as §2, with “Calcium signaling transients: A” for “A”, “units/ml)-Streptomycin” for “units/ml), Streptomycin”

RGS7 = RGS7 (Homo sapiens (Human), UniProt P49802); test: FCPIA: Gαo binding to RGS7; settings: Table 7
Chain of RGS7 (P49802 whole entry, species assumed): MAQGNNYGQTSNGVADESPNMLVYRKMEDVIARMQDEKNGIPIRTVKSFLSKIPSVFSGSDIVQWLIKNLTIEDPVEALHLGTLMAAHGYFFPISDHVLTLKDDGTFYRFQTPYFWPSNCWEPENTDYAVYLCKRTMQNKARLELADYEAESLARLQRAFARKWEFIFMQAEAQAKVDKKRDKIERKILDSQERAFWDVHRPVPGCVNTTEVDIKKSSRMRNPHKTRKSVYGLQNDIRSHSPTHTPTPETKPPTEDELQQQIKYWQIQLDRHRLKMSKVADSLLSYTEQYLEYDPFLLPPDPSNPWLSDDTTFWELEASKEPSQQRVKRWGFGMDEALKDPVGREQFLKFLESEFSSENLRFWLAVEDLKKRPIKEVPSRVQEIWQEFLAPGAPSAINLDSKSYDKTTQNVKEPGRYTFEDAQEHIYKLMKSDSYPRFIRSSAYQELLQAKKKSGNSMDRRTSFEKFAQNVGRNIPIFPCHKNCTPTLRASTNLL
Procedure: FCPIA Dose Response and Reversibility Experiments:
FCPIA was performed as previously described using chemically biotinylated RGS proteins and AlexaFluor-532 labeled Gα0. (Roman et al., J Biomol Screen, 2009; Blazer, L. L., et al., Mol Pharmacol).
RGS/Gα binding studies: The binding of biotinylated RGS proteins to fluorescently labeled Gαo was measured by Flow Cytometry Protein Interaction Assay (FCPIA) method previously described (Roman et al., (2009) J Biomol Screen.; Blazer et al., (2010) Curr Protoc Cytom Chapter 13, Unit 13 11 11-15; Roman et al., (2007) Mol Pharmacol 71, 169-175) as were the measures of compound reversibility.

HEK293 cells = test: Calcium mobilization induced by compound alone; assay type: cell-based;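 as to Calcium transient (% 50014): percent of response to 10 µM reference CCG-50014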
In short: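 HEK-293 Flp-In TREx cells stably expressing muscarinic M3 receptor, with human RGS4 induced by 1 μg/mL doxycycline for 24-48 h, loaded with Fluo-4 for 30 min at 37° C. Compound added without carbachol; fluorescence followed for 120 s, quantified as area under curve or peak intensity.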

Solubility experiments = assay type: physicochemical; settings: water; aqueous
Procedure: Compounds were diluted to 100 mM in DMSO and the further diluted to 500 μM in H2O, vortexed and centrifuged for 10 minutes at 13,000×g at ambient temperature.

[1] = tested on: muscarinic class of GPCRs; test: NIMH Psychoactive Drug Screening Program receptor panel
Procedure: (§3) Furthermore, the compound was tested against a panel of receptors via collaboration with the NIMH Psycoactive Drug Screening Program.

αAR = test: as above
Procedure: as §3

RGS4 = RGS4 (Homo sapiens (Human), UniProt P49798); test: Carbachol Ca2+ mobilization, M3 HEK-293 cells with doxycycline-induced RGS4; assay type: cell-based
Chain of RGS4 (P49798 whole entry): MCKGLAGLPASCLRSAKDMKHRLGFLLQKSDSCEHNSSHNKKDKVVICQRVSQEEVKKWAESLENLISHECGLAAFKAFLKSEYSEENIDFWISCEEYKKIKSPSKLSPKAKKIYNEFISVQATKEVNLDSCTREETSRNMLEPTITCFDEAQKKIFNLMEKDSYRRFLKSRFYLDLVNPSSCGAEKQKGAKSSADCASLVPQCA
Procedure: as §1
as §2, with “RGS4 expression was induced by supplementing the medium with 1 μg/mL doxycycline for 24-48 hours before experimentation. Cells were loaded with Fluo-4 No Wash dye in buffer for 30 minutes at 37° C.” left out
Calcium signaling transients: A stable cell line was developed based upon the HEK-293 Flp-In TREx cell line (Invitrogen, Carlsbad, Calif.) that stably express the muscarinic M3 receptor and have human RGS4 expression under doxycycline control. […] Compounds and/or carbachol were added to the wells and the fluorescence intensity was measured using a FlexStation (Molecular Devices, Sunnyvale, Calif.) plate reader. […]

Gα0 = Gα0 (Homo sapiens (Human), UniProt P09471); test: Intrinsic GTP hydrolysis by Gαo (single turnover); assay type: biochemical
Chain of Gα0 (P09471 whole entry): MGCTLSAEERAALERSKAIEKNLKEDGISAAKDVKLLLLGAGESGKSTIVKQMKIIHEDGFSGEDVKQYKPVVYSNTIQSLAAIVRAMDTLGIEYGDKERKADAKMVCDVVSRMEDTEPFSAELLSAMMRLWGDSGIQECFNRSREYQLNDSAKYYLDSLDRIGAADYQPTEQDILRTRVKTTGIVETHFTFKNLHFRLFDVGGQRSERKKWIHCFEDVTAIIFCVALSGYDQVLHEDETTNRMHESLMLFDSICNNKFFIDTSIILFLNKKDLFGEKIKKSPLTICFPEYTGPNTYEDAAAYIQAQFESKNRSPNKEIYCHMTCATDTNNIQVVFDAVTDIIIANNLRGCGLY
Procedure: Single Turnover GTPase Measurements:
Compounds were tested for the ability to inhibit the RGS4 and RGS8-stimulated increase in GTP hydrolysis by Gα0 as described previously (Roman, D. L., et al., Mol Pharmacol, 2007. 71(1): p. 169-75; Roof, R. A., et al., Chem Biol Drug Des, 2006. 67(4): p. 266-74).
Single-turnover GAP assay: Experiments were performed as previously described using purified his6-tagged Gαo (Blazer et al., Biochemistry 50, 3181-3192; Roof et al., (2008) Chem Biol Drug Des 72, 111-119).

[2] = Heart rate and blood pressure in freely-moving rats; assay type: in vivo
From the text: The muscarinic agonist carbachol can induce a transient bradycardic effect by activating M2 receptors in the SAN.

CCCCn1c(=O)sn(CC)c1=O [CCG-203769, 2-ethyl-4-butyl-1,2,4-thiadiazolidine-3,5-dione]
concentration above which carbachol Ca2+ transient is inhibited (M3 muscarinic receptor): > 3 µM | effect on carbachol-induced Ca2+ response (RGS-independent) (M3 muscarinic receptor): without affecting M3-mediated calcium signal; also recorded: does not directly affect the carbachol stimulation | effect on carbachol-induced Ca2+ response (RGS-independent) (M3 muscarinic receptor; listed as 11b): no effect | IC50 (RGS7): > 100 µM | induction of calcium transient by compound alone (HEK293 cells; 10 μM, HEK293 cells): no ability to induce calcium mobilization | Emax at 10 µM (HEK293 cells; Homo sapiens, HEK293, read-out: Calcium transient (% 50014)): 2.7% | solubility (Solubility experiments): > 5 mM | effect upon muscarinic class of GPCRs [1]: little to no observable effect | effect on αAR (αAR): able to inhibit | lowest concentration with enhanced Ca2+ signaling (RGS4): 1 µM | reversal of RGS4-mediated suppression of carbachol Ca2+ response (RGS4; 15 min pretreatment, 1 and 3 μM): partially rescued; also recorded: partially reverse | basal GTPase activity of the G protein (Gα0): without inhibiting the basal GTPase activity | blood pressure, carbachol plus compound ([2]; 10 mg/kg IV + carbachol 0.1 mg/kg IP): does not reach statistical significance | bradycardic effect of carbachol after compound ([2]; 10 mg/kg IV before carbachol 0.1 mg/kg IP): significantly potentiated | effect upon blood pressure, compound alone ([2]; 10 mg/kg, IV): no significant effect | effect upon heart rate, compound alone ([2]; 10 mg/kg, IV): no significant effect
